# Biological target: T1, His6-LIMP-2_35-430 (Homo sapiens, UniProt Q14108)
# T1 sequence (Q14108 35-430): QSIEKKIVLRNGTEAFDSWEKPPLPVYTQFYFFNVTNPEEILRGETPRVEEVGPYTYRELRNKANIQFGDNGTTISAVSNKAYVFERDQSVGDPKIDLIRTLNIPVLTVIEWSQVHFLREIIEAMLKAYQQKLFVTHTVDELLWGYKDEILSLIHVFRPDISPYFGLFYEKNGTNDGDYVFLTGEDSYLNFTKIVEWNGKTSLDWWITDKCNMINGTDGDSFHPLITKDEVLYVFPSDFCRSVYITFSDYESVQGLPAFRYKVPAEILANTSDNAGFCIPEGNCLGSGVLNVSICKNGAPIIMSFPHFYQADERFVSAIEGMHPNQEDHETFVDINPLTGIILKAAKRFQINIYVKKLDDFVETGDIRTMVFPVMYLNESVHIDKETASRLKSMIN
# Test: microscale thermophoresis
# Type: binding
row,Kd,Compound
1,241 µM,COc1ccc2cc1Oc1ccc(cc1)C[C@H]1c3cc(c(OC)cc3CCN1C)Oc1c(OC)c(OC)cc3c1[C@H](C2)N(C)CC3 [Tetrandrine]
2,3.7 µM,CC(C)CCC[C@@H](C)[C@H]1CC[C@H]2[C@@H]3CC=C4C[C@@H](O)CC[C@]4(C)[C@H]3CC[C@]12C [cholesterol]

# — article PMC12238253 (Nature Communications, 2025)
